Key:
Assay in all cases: relative viability (nuclei count vs DMSO), 5 days (fraction); higher = more cells survive
RO-3306 + OSI-027 = compound: C1=CC2=C(C=CC(=C2)C=C3C(=O)NC(=NCC4=CC=CS4)S3)N=C1 [RO-3306] + COc1cccc2cc(-c3nc([C@H]4CC[C@H](C(=O)O)CC4)n4ncnc(N)c34)[nH]c12 [OSI-027] (partner 0.5 µM)
Outline: (§1)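 Lung cancer cell lines were seeded in 1536-well plates and dosed by pin tool the next day, with either a single drug or a fixed anchor-drug dose combined with five library-drug doses (not always all listed) spaced in √10 steps. Five days later, one step fixed the cells and stained their nuclei (final 0.05% Triton X-100, 1% formaldehyde, 1 ug/ml Hoechst), and nuclei were counted on 4× images. Relative viability is the nuclei count in treated wells divided by the count in vehicle wells, and each value is the median of duplicate plates.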

[1] = compound: O=S(=O)(c1ccccc1)N(CC(F)(F)F)c1ccc(C(O)(C(F)(F)F)C(F)(F)F)cc1 + COc1cc2c(Oc3ccc(NC(=O)C4(C(=O)Nc5ccc(F)cc5)CC4)cc3F)ccnc2cc1OCCCN1CCOCC1 [Foretinib] (partner 0.25 µM)
Outline: as §1

[2] = compound: O=S(=O)(c1ccccc1)N(CC(F)(F)F)c1ccc(C(O)(C(F)(F)F)C(F)(F)F)cc1 + Cc1cc(Nc2cc(N3CCN(C)CC3)nc(Sc3ccc(NC(=O)C4CC4)cc3)n2)n[nH]1 [Tozasertib] (partner 0.1 µM)
Outline: as §1

RO-3306 + AZD7762 = compound: C1=CC2=C(C=CC(=C2)C=C3C(=O)NC(=NCC4=CC=CS4)S3)N=C1 [RO-3306] + NC(=O)Nc1cc(-c2cccc(F)c2)sc1C(=O)N[C@H]1CCCNC1 [AZD7762] (partner 0.2 µM)
Outline: as §1

For NCI-H2228, the relative viability (RO-3306 + OSI-027; first compound 0.01 µM) was 0.652, the relative viability (RO-3306 + OSI-027; first compound 0.03162 µM) was 0.411 and the relative viability (RO-3306 + OSI-027; first compound 0.1 µM) was 0.557. The relative viability (RO-3306 + OSI-027; first compound 0.3162 µM) was 0.685, the relative viability (RO-3306 + OSI-027; first compound 1 µM) was 0.429 and the relative viability ([1]; first compound 0.8 µM) was 0.65. The relative viability ([1]; first compound 2.53 µM) was 0.657, the relative viability ([1]; first compound 8 µM) was 0.839 and the relative viability ([2]; first compound 0.8 µM) was 0.265. For the same cell line, the relative viability ([2]; first compound 2.53 µM) was 0.176 and the relative viability ([2]; first compound 8 µM) was 0.183.
Cell Line NCI-H661 has a relative viability (RO-3306 + OSI-027; first compound 0.01 µM) of 0.853, a relative viability (RO-3306 + OSI-027; first compound 0.03162 µM) of 0.597 and a relative viability (RO-3306 + OSI-027; first compound 0.1 µM) of 0.695. For the same cell line, the relative viability (RO-3306 + OSI-027; first compound 0.3162 µM) was 0.72, the relative viability (RO-3306 + OSI-027; first compound 1 µM) was 0.701 and the relative viability ([1]; first compound 0.8 µM) was 1.03. For the same cell line, the relative viability ([1]; first compound 2.53 µM) was 0.961, the relative viability ([1]; first compound 8 µM) was 0.844 and the relative viability ([2]; first compound 0.8 µM) was 0.333. It also gave a relative viability ([2]; first compound 2.53 µM) of 0.34 and a relative viability ([2]; first compound 8 µM) of 0.361.
Work on NCI-H2023 yielded a relative viability (RO-3306 + OSI-027; first compound 0.01 µM) of 0.429, a relative viability (RO-3306 + OSI-027; first compound 0.03162 µM) of 0.373 and a relative viability (RO-3306 + OSI-027; first compound 0.1 µM) of 0.36. The relative viability (RO-3306 + OSI-027; first compound 0.3162 µM) was 0.419, the relative viability (RO-3306 + OSI-027; first compound 1 µM) was 0.283 and the relative viability ([1]; first compound 0.8 µM) was 0.957. The relative viability ([1]; first compound 2.53 µM) was 0.73, the relative viability ([1]; first compound 8 µM) was 0.66 and the relative viability ([2]; first compound 0.8 µM) was 0.335. For the same cell line, the relative viability ([2]; first compound 2.53 µM) was 0.289 and the relative viability ([2]; first compound 8 µM) was 0.249.
NCI-H1299 gave a relative viability ([1]; first compound 0.8 µM) of 1.1, a relative viability ([1]; first compound 2.53 µM) of 1.07 and a relative viability ([1]; first compound 8 µM) of 1.
COR-L23 was tested, and the relative viability (RO-3306 + OSI-027; first compound 0.01 µM) was 0.741, the relative viability (RO-3306 + OSI-027; first compound 0.03162 µM) was 0.688 and the relative viability (RO-3306 + OSI-027; first compound 0.1 µM) was 0.783. For the same cell line, the relative viability (RO-3306 + OSI-027; first compound 0.3162 µM) was 0.632, the relative viability (RO-3306 + OSI-027; first compound 1 µM) was 0.514 and the relative viability ([1]; first compound 0.8 µM) was 0.971. The relative viability ([1]; first compound 2.53 µM) was 1.01, the relative viability ([1]; first compound 8 µM) was 0.888 and the relative viability ([2]; first compound 0.8 µM) was 0.159. The relative viability ([2]; first compound 2.53 µM) was 0.152 and the relative viability ([2]; first compound 8 µM) was 0.164.
Work on NCI-H520 yielded a relative viability (RO-3306 + OSI-027; first compound 0.01 µM) of 0.288, a relative viability (RO-3306 + OSI-027; first compound 0.03162 µM) of 0.283 and a relative viability (RO-3306 + OSI-027; first compound 0.1 µM) of 0.225. It also gave a relative viability (RO-3306 + OSI-027; first compound 0.3162 µM) of 0.254, a relative viability (RO-3306 + OSI-027; first compound 1 µM) of 0.304 and a relative viability ([1]; first compound 0.8 µM) of 0.923. The relative viability ([1]; first compound 2.53 µM) was 0.686, the relative viability ([1]; first compound 8 µM) was 0.699 and the relative viability ([2]; first compound 0.8 µM) was 0.435. For the same cell line, the relative viability ([2]; first compound 2.53 µM) was 0.463 and the relative viability ([2]; first compound 8 µM) was 0.476.
Cell Line A549 has a relative viability ([1]; first compound 0.8 µM) of 0.962, a relative viability ([1]; first compound 2.53 µM) of 0.944 and a relative viability ([1]; first compound 8 µM) of 0.752.
SW 1573 gave a relative viability (RO-3306 + OSI-027; first compound 0.01 µM) of 0.683, a relative viability (RO-3306 + OSI-027; first compound 0.1 µM) of 0.603 and a relative viability (RO-3306 + OSI-027; first compound 0.3162 µM) of 0.607. The relative viability (RO-3306 + OSI-027; first compound 1 µM) was 0.578, the relative viability ([1]; first compound 0.8 µM) was 0.954 and the relative viability ([1]; first compound 2.53 µM) was 0.898. The relative viability ([1]; first compound 8 µM) was 1.04, the relative viability ([2]; first compound 0.8 µM) was 0.182 and the relative viability ([2]; first compound 2.53 µM) was 0.17. The relative viability ([2]; first compound 8 µM) was 0.215.
For NCI-H1623, the relative viability (RO-3306 + OSI-027; first compound 0.01 µM) was 0.408, the relative viability (RO-3306 + OSI-027; first compound 0.03162 µM) was 0.384 and the relative viability (RO-3306 + OSI-027; first compound 0.1 µM) was 0.45. It also gave a relative viability (RO-3306 + OSI-027; first compound 0.3162 µM) of 0.368, a relative viability (RO-3306 + OSI-027; first compound 1 µM) of 0.405 and a relative viability ([1]; first compound 0.8 µM) of 0.802. The relative viability ([1]; first compound 2.53 µM) was 0.805, the relative viability ([1]; first compound 8 µM) was 0.851 and the relative viability ([2]; first compound 0.8 µM) was 0.399. The relative viability ([2]; first compound 2.53 µM) was 0.396 and the relative viability ([2]; first compound 8 µM) was 0.366.
In the case of NCI-H1703, the relative viability (RO-3306 + AZD7762; first compound 0.01 µM) is reported as 0.137, the relative viability (RO-3306 + AZD7762; first compound 0.03162 µM) is reported as 0.102 and the relative viability (RO-3306 + AZD7762; first compound 0.1 µM) is reported as 0.125. The relative viability (RO-3306 + AZD7762; first compound 1 µM) was 0.124, the relative viability ([1]; first compound 0.8 µM) was 0.339 and the relative viability ([1]; first compound 2.53 µM) was 0.23. It also gave a relative viability ([1]; first compound 8 µM) of 0.29.
In the case of HCC-44, the relative viability (RO-3306 + AZD7762; first compound 0.01 µM) is reported as 1.04, the relative viability (RO-3306 + AZD7762; first compound 0.03162 µM) is reported as 1.1 and the relative viability (RO-3306 + AZD7762; first compound 0.1 µM) is reported as 1.01. For the same cell line, the relative viability (RO-3306 + AZD7762; first compound 0.3162 µM) was 1, the relative viability (RO-3306 + AZD7762; first compound 1 µM) was 1.01 and the relative viability (RO-3306 + OSI-027; first compound 0.01 µM) was 0.371. The relative viability (RO-3306 + OSI-027; first compound 0.03162 µM) was 0.441, the relative viability (RO-3306 + OSI-027; first compound 0.1 µM) was 0.434 and the relative viability (RO-3306 + OSI-027; first compound 0.3162 µM) was 0.402. The relative viability (RO-3306 + OSI-027; first compound 1 µM) was 0.387, the relative viability ([2]; first compound 2.53 µM) was 0.862 and the relative viability ([2]; first compound 8 µM) was 0.894.
NCI-H1792 was tested, and the relative viability (RO-3306 + AZD7762; first compound 0.01 µM) was 0.76, the relative viability (RO-3306 + AZD7762; first compound 0.1 µM) was 0.657 and the relative viability (RO-3306 + AZD7762; first compound 0.3162 µM) was 0.709. The relative viability (RO-3306 + AZD7762; first compound 1 µM) was 0.661, the relative viability (RO-3306 + OSI-027; first compound 0.01 µM) was 0.896 and the relative viability (RO-3306 + OSI-027; first compound 0.1 µM) was 0.743. The relative viability (RO-3306 + OSI-027; first compound 0.3162 µM) was 0.81 and the relative viability (RO-3306 + OSI-027; first compound 1 µM) was 0.551.
NCI-H1563 gave a relative viability (RO-3306 + OSI-027; first compound 0.01 µM) of 0.671, a relative viability (RO-3306 + OSI-027; first compound 0.03162 µM) of 0.733 and a relative viability (RO-3306 + OSI-027; first compound 0.1 µM) of 0.736. The relative viability (RO-3306 + OSI-027; first compound 0.3162 µM) was 0.735, the relative viability (RO-3306 + OSI-027; first compound 1 µM) was 0.725 and the relative viability ([1]; first compound 0.8 µM) was 0.922. The relative viability ([1]; first compound 2.53 µM) was 0.827 and the relative viability ([1]; first compound 8 µM) was 0.893.
Cell Line IA-LM has a relative viability ([1]; first compound 0.8 µM) of 1.08, a relative viability ([1]; first compound 2.53 µM) of 1 and a relative viability ([1]; first compound 8 µM) of 1.12.
In the case of NCI-H2009, the relative viability (RO-3306 + OSI-027; first compound 0.01 µM) is reported as 0.656, the relative viability (RO-3306 + OSI-027; first compound 0.03162 µM) is reported as 0.56 and the relative viability (RO-3306 + OSI-027; first compound 0.1 µM) is reported as 0.624. The relative viability (RO-3306 + OSI-027; first compound 0.3162 µM) was 0.622, the relative viability (RO-3306 + OSI-027; first compound 1 µM) was 0.615 and the relative viability ([1]; first compound 0.8 µM) was 1.26. It also gave a relative viability ([1]; first compound 2.53 µM) of 1.08, a relative viability ([1]; first compound 8 µM) of 0.988 and a relative viability ([2]; first compound 0.8 µM) of 0.749. For the same cell line, the relative viability ([2]; first compound 2.53 µM) was 0.57 and the relative viability ([2]; first compound 8 µM) was 0.679.

From the supplement of paper PMC10307832
